Assay results reported in patent US8283373B2, “Inhibitors of cytosolic phospholipase A2” (Pfizer Inc., priority 2005, dated 2012).

Legend:
[1] = target: T1, cPLA2α (Homo sapiens, UniProt P47712); test: GLU Micelle Assay; assay type: biochemical
T1 sequence (P47712 1-749): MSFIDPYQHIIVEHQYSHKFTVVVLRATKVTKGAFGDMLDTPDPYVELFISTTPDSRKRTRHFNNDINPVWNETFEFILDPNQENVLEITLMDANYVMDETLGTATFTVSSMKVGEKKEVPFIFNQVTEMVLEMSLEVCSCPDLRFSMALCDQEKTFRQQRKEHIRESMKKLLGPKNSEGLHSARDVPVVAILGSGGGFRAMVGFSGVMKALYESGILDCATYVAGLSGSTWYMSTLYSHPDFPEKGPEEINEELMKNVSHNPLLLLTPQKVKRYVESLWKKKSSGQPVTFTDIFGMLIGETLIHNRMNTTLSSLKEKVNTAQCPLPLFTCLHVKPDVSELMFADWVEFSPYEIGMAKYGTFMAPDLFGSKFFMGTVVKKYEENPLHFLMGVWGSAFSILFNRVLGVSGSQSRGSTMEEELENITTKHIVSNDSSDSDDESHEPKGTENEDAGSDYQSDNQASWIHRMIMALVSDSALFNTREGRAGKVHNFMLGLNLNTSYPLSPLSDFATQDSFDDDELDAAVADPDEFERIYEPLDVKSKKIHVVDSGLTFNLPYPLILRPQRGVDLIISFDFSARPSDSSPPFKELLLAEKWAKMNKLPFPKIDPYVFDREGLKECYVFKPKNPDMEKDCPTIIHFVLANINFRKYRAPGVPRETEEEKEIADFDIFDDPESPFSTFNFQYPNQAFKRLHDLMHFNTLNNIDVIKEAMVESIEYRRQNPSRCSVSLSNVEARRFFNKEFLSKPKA
Protocol: The assay was carried in a 96-well format using a fluorescent plate reader with a 355 nm excitation filter and a 460 nm emission filter (Lab Systems Fluoroscan II, Helsinki, Finland). The assay buffer contained 940 μM Triton X-100, 50 mM Hepes pH 7.4, 0.3 mM EDTA, 1 mM CaCl2 and 300 mM KCl. DTPC (1,2-O-tetradecyl-sn-glycero-3-phosphocholine, Avanti) at a final concentration of 120 μM was added the day of the experiment and GLU (7-Hydroxycoumarinyl-γ-linolenate, Biomol Research Lab, Inc.) at a final concentration of 90 μM was added immediately prior to each assay.
Compounds (10 μL) dissolved in DMSO were placed in duplicate wells of a black 96-well plate. Wells corresponding to the positive and negative controls contained DMSO without inhibitors. Just prior to the experiment, 200 μL assay buffer containing 90 μM GLU and 120 μM DTPC was added to all wells in the assay plate. Assay buffer (50 μL) was added to the negative, and 50 μL cPLA2α solution ([…] in assay buffer) was added to all other wells to initiate the reaction. The final concentration of enzyme was 1 μg/ml. The content of each well was mixed gently during the addition of the enzyme, and the plate was rapidly transferred to the fluorescent plate reader. The increase in fluorescence was read every 4 min for 84 min. The slope of the resulting line was determined and the inhibition was calculated using the equation below: Percent Inhibition=[1−(slope with inhibitor−slope negative control)/(slope positive control−slope negative control)]×100 Rat Whole Blood Assay

[2] = test system: TXB2; test: Rat Whole Blood Assay (A23187-stimulated TXB2); assay type: cell-based; conditions: Rattus norvegicus; A23187 5 μM
Protocol: Fresh blood was collected in heparinized tubes by cardiac puncture of male Sprague-Dawley rats. Aliquots of blood (0.6 mL) were incubated with either 6 μL solvent (DMSO), or 6 μL of test compounds at various concentrations for 15 minutes at 37° C. This was followed by incubation of the blood with 6 μL of calcium ionophore, A23187 (Sigma C-7522) diluted in DMSO for 10 min at 37° C. The final concentration of A23187 was 5 μM. DMSO (6 μL) was added in the unstimulated controls. The reactions were stopped by mixing 60 μL cold EDTA to give a final concentration of 20 mM. The blood was centrifuged at 6,500 rpm for 10 min on a microcentrifuge to obtain plasma. A 70 μL aliquot of plasma was mixed with 400 μL cold methanol for protein precipitation. After incubation at −80° C. for 30 min, the supernatant was obtained by centrifuging at 6,500 rpm for 10 min, and was assayed for TXB2 according to the manufacturer's procedure (Assay Designs, Inc.'s ELISA kit #900-002).

[3] = test system: primary cerebellar granule neurons; test: Oxygen-glucose deprivation (OGD) in cultured cerebellar granule neurons; assay type: cell-based, rat; conditions: for percent cell death (lactate dehydrogenase release), Avg.: OGD 2 hours, control 14, OGD 51
Protocol: Primary cerebellar granule neurons were isolated from P5-8 rat pups. Briefly, cerebelli were collected and pooled in ice-cold phosphate buffer saline (PBS) without Ca^2+ and Mg^2+. The tissue was finely chopped and transferred to an enzymatic dissociation media containing 20 IU/ml papain in Earle's balanced salt solution (Worthington Biochemical, Freehold, N.J.) and incubated for 30 minutes at 37° C. After enzymatic dissociation, the papain solution was aspirated and the tissue mechanically triturated with a fire-polished Pasteur pipette in complete media [Neurobasal Medium with B-27 supplement (Gibco, Grand Island, N.Y.), penicillin/streptomycin, aphidicolin, glutamate, potassium chloride] containing 2,000 IU/ml DNase and 10 mg/ml ovomucoid protease inhibitor. Single-cell suspensions in complete media were plated on pre-coated poly-L-ornithine/laminin 24-well plates (Becton-Dickinson, Bedford, Mass.) at a density of
5.0×10^5 cells/well. Cells were maintained for two weeks prior to experimentation.
Cultures were treated with Compound A at various concentrations, 60 minutes before OGD. Media was removed and replaced with deoxygenated buffer in an anaerobic chamber (80% nitrogen, 10% hydrogen, 10% carbon dioxide gas mixture). Fresh Compound A, Example 34 or Example 41 was added to the cultures and maintained in the anaerobic chamber for 2 hours. At the end of the incubation, fresh media was exchanged and fresh Compound A was added. Cultures were maintained for an additional 24 hours in a normoxic incubator. Cell death was determined by measuring lactate dehydrogenase release into the media 24 hours later (Roche Biochemicals). In the table below, values are shown for the control, OGD, various concentrations of Compound A, and MK801, a NMDA receptor antagonist, which is a positive control.

SMILES: O=C(O)c1ccc(CCCc2c(CCNS(=O)(=O)Cc3c([N+](=O)[O-])cccc3C(F)(F)F)n(C(c3ccccc3)c3ccccc3)c3ccc(Cl)cc23)cc1 [Example 27, 4-(3-{5-chloro-1-(diphenylmethyl)-2-[2-({[2-nitro-6-(trifluoromethyl)benzyl]sulfonyl}amino)ethyl]-1H-indol-3-yl}propyl)benzoic acid]
- IC50 [1]: 0.038 µM
- IC50 [2]: 0.03 µM

SMILES: O=C(O)c1ccc(CCCc2c(CCNS(=O)(=O)Cc3ccccc3F)n(C(c3ccccc3)c3ccccc3)c3ccc(Cl)cc23)cc1 [Example 28, 4-{3-[5-chloro-1-(diphenylmethyl)-2-(2-{[(2-fluorobenzyl)sulfonyl]amino}ethyl)-1H-indol-3-yl]propyl}benzoic acid]
- IC50 [1]: 0.03 µM
- IC50 [2]: 0.03 µM

SMILES: O=C(O)c1ccc(CCCc2c(CCNS(=O)(=O)Cc3ccccc3-c3ccccc3)n(C(c3ccccc3)c3ccccc3)c3ccc(Cl)cc23)cc1 [Example 29, 4-{3-[2-(2-{[(biphenyl-2-ylmethyl)sulfonyl]amino}ethyl)-5-chloro-1-(diphenylmethyl)-1H-indol-3-yl]propyl}benzoic acid]
- IC50 [1]: 0.018 µM
- IC50 [2]: 0.05 µM

SMILES: O=C(O)c1ccc(CCCc2c(CCNS(=O)(=O)Cc3ccccc3-c3ccncc3)n(C(c3ccccc3)c3ccccc3)c3ccc(Cl)cc23)cc1 [Example 30, 4-{3-[5-chloro-1-(diphenylmethyl)-2-(2-{[(2-pyridin-4-ylbenzyl)sulfonyl]amino}ethyl)-1H-indol-3-yl]propyl}benzoic acid]
- IC50 [1]: 0.021 µM
- IC50 [2]: 0.06 µM

SMILES: O=C(O)c1ccc(CCCc2c(CCNS(=O)(=O)Cc3ccccc3-c3cccnc3)n(C(c3ccccc3)c3ccccc3)c3ccc(Cl)cc23)cc1 [Example 31, 4-{3-[5-chloro-1-(diphenylmethyl)-2-(2-{[(2-pyridin-3-ylbenzyl)sulfonyl]amino}ethyl)-1H-indol-3-yl]propyl}benzoic acid]
- IC50 [1]: 0.016 µM
- IC50 [2]: 0.04 µM

SMILES: O=C(O)c1ccc(CCCc2c(CCNS(=O)(=O)Cc3ccccc3-c3ccsc3)n(C(c3ccccc3)c3ccccc3)c3ccc(Cl)cc23)cc1 [Example 32, 4-(3-{5-chloro-1-(diphenylmethyl)-2-[2-({[2-(3-thienyl)benzyl]sulfonyl}amino)ethyl]-1H-indol-3-yl}propyl)benzoic acid]
- IC50 [1]: 0.013 µM
- IC50 [2]: 0.05 µM

SMILES: Cc1noc(C)c1-c1ccccc1CS(=O)(=O)NCCc1c(CCCc2ccc(C(=O)O)cc2)c2cc(Cl)ccc2n1C(c1ccccc1)c1ccccc1 [Example 33, 4-{3-[5-chloro-2-[2-({[2-(3,5-dimethylisoxazol-4-yl)benzyl]sulfonyl}amino)ethyl]-1-(diphenylmethyl)-1H-indol-3-yl]propyl}benzoic acid]
- IC50 [1]: 0.022 µM
- IC50 [2]: 0.02 µM

SMILES: CN(C)c1ccc(-c2ccccc2CS(=O)(=O)NCCc2c(CCCc3ccc(C(=O)O)cc3)c3cc(Cl)ccc3n2C(c2ccccc2)c2ccccc2)cc1 [Example 35, 4-{3-[5-chloro-2-{2-[({[4′-(dimethylamino)biphenyl-2-yl]methyl}sulfonyl)amino]ethyl}-1-(diphenylmethyl)-1H-indol-3-yl]propyl}benzoic acid]
- IC50 [1]: 0.027 µM
- IC50 [2]: 0.05 µM

SMILES: O=C(O)c1ccc(CCCc2c(CCNS(=O)(=O)Cc3ccccc3-c3ccccc3OC(F)(F)F)n(C(c3ccccc3)c3ccccc3)c3ccc(Cl)cc23)cc1 [Example 36, 4-[3-(5-chloro-1-(diphenylmethyl)-2-{2-[({[2′-(trifluoromethoxy)biphenyl-2-yl]methyl}sulfonyl)amino]ethyl}-1H-indol-3-yl)propyl]benzoic acid]
- IC50 [1]: 0.031 µM
- IC50 [2]: 0.07 µM

SMILES: N#Cc1ccccc1-c1ccccc1CS(=O)(=O)NCCc1c(CCCc2ccc(C(=O)O)cc2)c2cc(Cl)ccc2n1C(c1ccccc1)c1ccccc1 [Example 37, 4-{3-[5-chloro-2-[2-({[(2′-cyanobiphenyl-2-yl)methyl]sulfonyl}amino)ethyl]-1-(diphenylmethyl)-1H-indol-3-yl]propyl}benzoic acid]
- IC50 [1]: 0.025 µM
- IC50 [2]: 0.03 µM

SMILES: O=C(O)CCc1ccc(S(=O)(=O)CCc2c(CCNS(=O)(=O)Cc3ccccc3C(F)(F)F)n(C(c3ccccc3)c3ccccc3)c3ccc(Cl)cc23)cc1 [Example 38, 3-{4-[(2-{5-chloro-1-(diphenylmethyl)-2-[2-({[2-(trifluoromethyl)benzyl]sulfonyl}amino)ethyl]-1H-indol-3-yl}ethyl)sulfonyl]phenyl}propanoic acid]
- IC50 [1]: 0.007 µM
- IC50 [2]: 0.01 µM

SMILES: CC(c1ccccc1C(F)(F)F)S(=O)(=O)NCCc1c(CCS(=O)(=O)c2ccc(CCC(=O)O)cc2)c2cc(Cl)ccc2n1C(c1ccccc1)c1ccccc1 (centres unmarked) [Example 39, 3-(4-{[2-(5-chloro-1-(diphenylmethyl)-2-{2-[({1-[2-(trifluoromethyl)phenyl]ethyl}sulfonyl)amino]ethyl}-1H-indol-3-yl)ethyl]sulfonyl}phenyl)propanoic acid]
- IC50 [1]: 0.068 µM
- IC50 [2]: 0.02 µM

SMILES: O=C(O)c1ccc(CCCc2c(CCNS(=O)(=O)Cc3ccccc3O)n(C(c3ccccc3)c3ccccc3)c3ccc(Cl)cc23)cc1 [Example 40, 4-{3-[5-chloro-1-(diphenylmethyl)-2-(2-{[(2-hydroxybenzyl)sulfonyl]amino}ethyl)-1H-indol-3-yl]propyl}benzoic acid]
- IC50 [1]: 0.072 µM
- IC50 [2]: 0.06 µM

SMILES: O=C(O)c1ccc(CCCc2c(CCNS(=O)(=O)Cc3ccccc3-c3cccc4ncccc34)n(C(c3ccccc3)c3ccccc3)c3ccc(Cl)cc23)cc1 [Example 41, 4-{3-[5-chloro-1-(diphenylmethyl)-2-(2-{[(2-quinolin-5-ylbenzyl)sulfonyl]amino}ethyl)-1H-indol-3-yl]propyl}benzoic acid]
- protection of cultured neurons from OGD-induced cell death [3]: effective in protecting cultured neurons from OGD-induced cell death
- percent cell death (lactate dehydrogenase release), Avg. ([3]; 0.1 μM): 40%
- percent cell death (lactate dehydrogenase release), Avg. ([3]; 0.3 μM): 33%
- percent cell death (lactate dehydrogenase release), Avg. ([3]; 1 μM): 30%
- percent cell death (lactate dehydrogenase release), Avg. ([3]; 3 μM): 24%
- IC50 [1]: 0.022 µM
